Laboratory results as given in patent publication US20170296573A1, “ANTITUMOR DRUG COMPRISING BETA-CYCLODEXTRIN” (JRC G. K., priority 2014, published 2017).

Legend:
[1] = test system: AKT; assay: Example 2 Method A: AKT phosphorylation in RCC4 cells stimulated with IGF1, serum free; assay type: cell-based; details: 10 mM 2DG 2 hours, 10 mM bCD (MBCD), 0-30 ng/ml IGF1 5 minutes
Description: The bCD used herein was MBCD.
RCC4 cells were incubated in serum free media for 2 hours with or without 10 mM 2DG. In the last hour, 10 mM bCD was added to each one subset of the cells treated/untreated with 2DG. Then 0-30 ng/ml IGF1 was added and the incubation continued for 5 minutes before the cells were harvested and analyzed by Western blotting.

[2] = test system: AKT; assay: Example 1 Test A: IGF1-stimulated AKT phosphorylation in HeLa cells, Western blot; assay type: cell-based; details: serum-free, 7 mM bCD (MBCD) 30 minutes, 20 ng/mL IGF1 20 minutes
Description: (§1) We ran 20 μg of proteins per lane for western blots. We ran 8, 10, 12.5 and 15% gels depending on the size of proteins being detected by western blots. When there are two proteins having a similar size, gel is flowed in each protein to make western blot analysis about each protein. The immunoprecipitation was undergone by adding 200 μg of protein from solubilized cells and Protein G Sepharose or Protein A Sepharose (Sigma P3296/P9242) pre-conjugated with immunoprecipitation antibody to a buffer for immunoprecipitation, and slowly rotating the tube containing the sample buffer at 4° C. overnight. The buffer for immunoprecipitation comprises 20 mM Tris Ph 7.5, 1% Triton-X100, 150 mM NaCl, phosphatase inhibitor cocktail (Cell Signaling (#58709S)), and 10% glycerol. […] The precipitate in the solution was separated with 15% SDS-PAGE or 12.5% SDS-PAGE and analyzed by Western blotting.
(§2) (Test A) HeLa cells were incubated in serum-free medium with 0, 1.75, 3.5, and 7.0 mM bCD for 30 minutes, which were prepared in duplicate in each bCD concentration. […] The cells were harvested and analyzed by Western Blots for phosphor-serine AKT and AKT, in which the phosphorylation of AKT was used as an indicator of the AKT activation. […] The cells were harvested and analyzed by Western Blots about EGFR, IGF1R, ERK, PI3K, and AKT, as well as each phosphorylation thereof. […]

[3] = test system: PI3K-AKT pro-survival signals; assay: Example 1 Tests B and C: EGF or IGF1 challenge of HeLa cells, Western blot for EGFR, IGF1R, PI3K, AKT phosphorylation; assay type: cell-based; details: 10 mM bCD (MBCD) 30 minutes, then 100 ng/mL EGF or 10 ng/mL IGF1
Description: as §1, §2

[4] = test system: RTK-Ras-ERK signals; assay: Example 1 Tests B and C: ERK signals in EGF or IGF1 challenged HeLa cells, Western blot; assay type: cell-based; details: 10 mM bCD (MBCD) 30 minutes, then EGF or IGF1
Description: as §1, §2

[5] = test system: AKT; assay: Example 3 Method B: AKT phosphorylation in RCC4 cells in 10% serum; assay type: cell-based; details: 10 mM 2DG 2 hours, 10 mM bCD (MBCD) last 30 minutes
Description: (§3) We ran 20 μg of proteins per lane for western blots. We ran 8, 10, 12.5 and 15% gels depending on the size of proteins being detected by western blots. When there are two proteins having a similar size, gel is flowed in each protein to make western blot analysis about each protein. The immunoprecipitation was undergone by adding 200 μg of protein from solubilized cells and Protein G Sepharose or Protein A Sepharose (Sigma P3296/P9242) pre-conjugated with immunoprecipitation antibody to a buffer for immunoprecipitation, and slowly rotating the tube containing the sample buffer at 4° C. overnight. The buffer for immunoprecipitation comprises 20 mM Tris Ph 7.5, 1% Triton-X100, 150 mM NaCl, phosphatase inhibitor cocktail (Cell Signaling (#58709S)), and 10% glycerol. Next morning, the content in the tube was centrifuged. The precipitate was washed with the same buffer twice and dissolved in SDS buffer. The precipitate in the solution was separated with 15% SDS-PAGE or 12.5% SDS-PAGE and analyzed by Western blotting.
RCC4 cells were incubated with or without 10 mM 2DG for 2 hours in the presence of 10% serum. In the last 30 minutes, each one subset of cells treated/untreated with 2DG was exposed to 10 mM bCD before the cells were harvested and analyzed.

[6] = test system: AKT; assay: Example 3 Method C: recovery of AKT activities in HeLa cells after bCD washout; assay type: cell-based; details: 10 mM bCD (MBCD) one hour, washed, 10% serum, up to 120 minutes
Description: as §3
HeLa cells were incubated with 10 mM bCD for one hour in the presence of 10% serum before the cells were washed and re-incubated in medium containing 10% serum for the indicated period (˜120 minutes).

[7] = test system: IGF1-induced hypoglycemia; assay: Example 4: IGF1-induced hypoglycemia in mice; assay type: in vivo; details: five-hour starved mice, 40 μg bCD (HPBCD) 30 minutes before 100 ng IGF1, glucose after thirty minutes
Description: Five-hour starved mice were either pre-treated with 40 μg bCD for 30 minutes, or without. They were then injected with 100 ng IGF1. After thirty minutes, the blood glucose levels were measured by drawing blood from each mouse tail. The experiments were performed in triplicate samples and the error bars indicate the standard deviation. The mice were all about 20 g.

[8] = test system: AKT; assay: Example 6 Test A: AKT phosphorylation, HeLa cervical cancer cells; assay type: cell-based; details: 10 mM bCD (MBCD) 30 minutes, 25 mM glucose
Description: as §1, with “overnight.” for “overnight. The buffer for immunoprecipitation comprises 20 mM Tris Ph 7.5, 1% Triton-X100, 150 mM NaCl, phosphatase inhibitor cocktail (Cell Signaling (#58709S)), and 10% glycerol.”
(§4) (Test A) HeLa cervical cancer cells, UOK121 renal cancer cells, Panc-1 pancreatic cancer cells, and A431 squamous cancer cells were untreated, pre-treated with 10 mM 2DG, co-incubated with 10 mM bCD for the last 30 minutes, or both-treated with the 10 mM 2DG and the 10 mM bCD, in the presence of 25 mM glucose contained in the media. Each cell was harvested and analyzed by Western Blotting. (Test B) The same samples of A431 cell lysates in Test A were analyzed for EGFR activation, ERK1/2 activation, and PI3K activation. […] The cells were harvested and the live cells were counted by trypan-blue dye exclusion assay. […]

[9] = test system: AKT; assay: Example 6 Test A: AKT phosphorylation, UOK121 renal cancer cells; assay type: cell-based, human; details: 10 mM bCD (MBCD) 30 minutes, 25 mM glucose
Description: as §1, with “overnight.” for “overnight. The buffer for immunoprecipitation comprises 20 mM Tris Ph 7.5, 1% Triton-X100, 150 mM NaCl, phosphatase inhibitor cocktail (Cell Signaling (#58709S)), and 10% glycerol.”
as §4

[10] = test system: AKT; assay: Example 6 Test A: AKT phosphorylation, Panc-1 pancreatic cancer cells; assay type: cell-based; details: Panc-1 cells, 10 mM bCD (MBCD) 30 minutes, 25 mM glucose
Description: as §1, with “overnight.” for “overnight. The buffer for immunoprecipitation comprises 20 mM Tris Ph 7.5, 1% Triton-X100, 150 mM NaCl, phosphatase inhibitor cocktail (Cell Signaling (#58709S)), and 10% glycerol.”
as §4

[11] = test system: AKT; assay: Example 6 Test A: AKT phosphorylation, A431 squamous cancer cells; assay type: cell-based; details: 10 mM bCD (MBCD) 30 minutes, 25 mM glucose
Description: as §1, with “overnight.” for “overnight. The buffer for immunoprecipitation comprises 20 mM Tris Ph 7.5, 1% Triton-X100, 150 mM NaCl, phosphatase inhibitor cocktail (Cell Signaling (#58709S)), and 10% glycerol.”
as §4

[12] = test system: EGFR, ERK1/2, and PI3K; assay: Example 6 Test B: EGFR, ERK1/2 and PI3K activation in A431 cells; assay type: cell-based; details: bCD and/or 2DG, 10 mM each
Description: as §1, with “overnight.” for “overnight. The buffer for immunoprecipitation comprises 20 mM Tris Ph 7.5, 1% Triton-X100, 150 mM NaCl, phosphatase inhibitor cocktail (Cell Signaling (#58709S)), and 10% glycerol.”
as §4

[13] = target: Bak-Bcl-xL complex (Homo sapiens, UniProt Q07817); assay: Example 7: immunoprecipitation of Bak-bound proteins in RCC4 cells, Bcl-xL; assay type: cell-based; details: RCC4 cells pre-treated with 2DG and bCD, 3 μM ABT
Description: (§5) (A and B) RCC4 cells were treated with 2DG, bCD, 2DG +bCD, or left untreated as done in Example 6. Approximately 20 μg of the whole cell lysates (WCL) were analyzed by western blotting. Bak- and Bcl-xL-bound proteins were immune-precipitated from approximately 200 μg of cell lysates and analyzed by western blotting. (C) 3 μM ABT with or without the 20 μM pan-caspase inhibitor z-VAD was added to the cells pre-treated with the combination of 2DG and bCD over 2 hours, and analyzed by Western blotting for caspase 9. […]

[14] = test system: caspase 9; assay: Example 7: caspase 9 cleavage in RCC4 cells, Western blot; assay type: cell-based
Description: as §5

[15] = test system: cytochrome c; assay: Example 7: cytochrome c release assay in RCC4 cells; assay type: cell-based; details: RCC4 cells pre-treated with 2DG-bCD
Description: RCC4 cells grown and treated on glass cover slips were first fixed with 3.7% formaldehyde in PBS for 10 minutes. Then the cover slips were briefly exposed to 100% methanol kept in a −20° C. freezer. Cover slips were incubated with 10% serum in PBS before being stained with mouse anti-cytochrome c antibody overnight. Next morning, the cover slips were washed and blocked with 10% serum in PBS for 30 minutes. Then they were exposed to secondary anti-mouse antibody conjugated with AF488 for 30 minutes. They were washed again and exposed to propidium iodide (1 μg/mL in PBS) for 15 minutes to stain DNA in the nucleus before being washed and mounted on the glass slides. We used a Keyence BZ9000 microscope with a 100× objective lens for observation. […] (E) RCC4 cells treated with 2DG-bCD (left panel), RCC4 cells treated with 2DG-bCD-ABT (middle panel), and RCC4 cells treated with 2DG-bCD-ABT in the presence of 20 μM pan-caspase inhibitor z-VAD (right panel) were immunostained using anti-cytochrome c antibody and GFP-conjugated anti-mouse antibody. Nuclei were stained red with propidium iodide.

[16] = mice, injected, four hours later; cited from earlier work

Bak-Bcl-xL complex, sequence (Q07817 whole entry, one chain of several): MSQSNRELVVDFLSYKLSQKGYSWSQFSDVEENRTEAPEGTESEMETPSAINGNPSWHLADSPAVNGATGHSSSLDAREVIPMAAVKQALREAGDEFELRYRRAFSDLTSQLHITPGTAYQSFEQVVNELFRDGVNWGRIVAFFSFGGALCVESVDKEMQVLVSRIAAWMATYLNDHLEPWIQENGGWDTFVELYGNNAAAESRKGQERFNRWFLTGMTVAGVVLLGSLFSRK

Q: With O=CC[C@@H](O)[C@H](O)[C@H](O)CO [2DG, 2-deoxyglucose] as the molecule, how does the AKT phosphorylation [1] read?
A: The AKT phosphorylation was “increasing the phosphorylation of AKT”.

Q: For methyl-β-cyclodextrin [bCD], which “process that IGF1 generates signal to AKT (AKT phosphorylation)” value [2] is on record?
A: The value was “completely block”.

Q: And the AKT activations [3]?
A: The AKT activations was “considerably diminished”.

Q: What about the “activation of EGFR, IGF1R, and PI3K” value [3] of the same molecule?
A: The value was “clearly activated”.

Q: What about the Ras-ERK proliferation signals [4] of the same molecule?
A: Its Ras-ERK proliferation signals is “intact”.

Q: And the “phosphorylation of AKT” value [5]?
A: The value was “almost totally absent”.

Q: And the “AKT activities coming back after return to media without bCD” value [6]?
A: Its value is “did not take long”.

Q: And the “IGF1-induced hypoglycemia (blood glucose)” value [7]?
A: Its value is “clearly attenuated”.

Q: And the AKT phosphorylation [8]?
A: Its AKT phosphorylation is “attenuated”.

Q: What about the AKT phosphorylation [9] of the same molecule?
A: Its AKT phosphorylation is “attenuated”.

Q: What about the AKT phosphorylation [10] of the same molecule?
A: The AKT phosphorylation was “attenuated”.

Q: What about the AKT phosphorylation [11] of the same molecule?
A: Its AKT phosphorylation is “attenuated”.

Q: And the “EGFR, ERK1/2, and PI3K activation” value [12]?
A: The value was “all activated”.

Q: Which results are given for CC1(C)CCC(c2ccc(Cl)cc2)=C(CN2CCN(c3ccc(C(=O)NS(=O)(=O)c4ccc(N[C@H](CCN5CCOCC5)CSc5ccccc5)c(S(=O)(=O)C(F)(F)F)c4)cc3)CC2)C1 [ABT, ABT-263]?
A: Bak-Bcl-xL complex [13]: caused the dissociation; caspase 9 activation ([14]; RCC4 cells pre-treated with 2DG and bCD, 3 μM ABT): activated; time to full caspase 9 activation ([14]; after ABT addition, RCC4 cells pre-treated with 2DG-bCD): ≤ 2 h; release of cytochrome c from mitochondria ([15]; with or without 20 μM z-VAD): took place only after the addition of ABT; time to full release of cytochrome c ([15]; after ABT addition): ≤ 2 h

Q: Which “amount that remains in circulation” value [16] does the source give for CC(O)COC[C@H]1O[C@@H]2O[C@H]3[C@H](O)[C@@H](O)[C@@H](O[C@H]4[C@H](O)[C@@H](O)[C@@H](O[C@H]5[C@H](O)[C@@H](O)[C@@H](O[C@H]6[C@H](O)[C@@H](O)[C@@H](O[C@H]7[C@H](O)[C@@H](O)[C@@H](O[C@H]8[C@H](O)[C@@H](O)[C@@H](O[C@H]1[C@H](O)[C@H]2O)O[C@@H]8COCC(C)O)O[C@@H]7COCC(C)O)O[C@@H]6COCC(C)O)O[C@@H]5COCC(C)O)O[C@@H]4COCC(C)O)O[C@@H]3COCC(C)O (stereo partly drawn) [HPBCD, (2-hydroxypropyl)-β-cyclodextrin] here?
A: Its value is “about 50%”.
